9 compounds from US4400517A, “Phosphoric esters derived from 1,2,4-triazole having an insecticidal, nematocidal and acaricidal action, and their preparation” (priority 1976, dated 1983) can be followed below.

Read-outs that look alike come from different tables or passages of the source.

As usually defined, the mortality is the percentage killed.

Holding throughout (assay type): in vivo
For one assay, the system named is Pieris brassicae. The experiment in a line: Biological activity on Pieris brassicae (Lepidoptera). Particulars: 48 h. On the procedure:
(2) Biological activity on Pieris brassicae (Lepidotera)
Cut-off cauliflower leaves were sprinkled with an aqueous dispersion of the products under examination (see TABLE 5).
After drying, the leaves were infested with 5-day old larvae. The percentage of mortality of the larvae (untreated leaves=0) was determined after 48 hours from treatment.

In assay [1] the test system is Leptinotarsa decemlineata. The experiment in a line: Biological activity on Leptinotarsa decemlineata (Coleoptera). As to conditions: 48 h, Table 5, read-out: Activity (mortality class), Leptinotarsa D.; for mortality at 0.1 %: 1%o; for mortality at 0.005 %: 0.05%o. On the procedure:
(3) Biological activity on Leptinotarsa decemlineata (Coleoptera)
Small potato plants grown in pots were infested with 4-day old larvae, and were then sprinkled with an aqueous dispersion of the products under examination (see Tables 4 and 5).
The mortality percentage (untreated small plants=0) was determined after 48 hours from treatment.

Another assay concerns Culex pipiens. The experiment in a line: Biological activity on Culex pipiens larvae (Diptera). Particulars: 24 h, Table 5, read-out: Activity (mortality class), Culex P. (larvae). As to the method: (4) Biological activity on Culex pipiens (Diptera)
Into glasses containing an aqueous dispersion of the products under examination (see Tables 4 and 5) there were introduced mosquito larvae of third and fourth age.
The mortality percentage of the larvae (glasses containing pure water=0) was determined after 24 hours from treatment.

For a further assay, the system named is Tetranychus urticae. The experiment in a line: Biological activity on adults of Tetranychus urticae (Acari). Particulars: 24 h, Table 5, read-out: Activity (mortality class), Tetranychus U. (adults); for mortality at 0.1 %: 1%o; for mortality at 0.001 %: 0.01%o. On the procedure:
(5) Biological activity on adults of Tetranychus urticae (Acari)
Discs of bean leaves were infested with adult acari and then sprinkled with an aqueous dispersion of the products under examination (see Tables 4 and 5).
The mortality percentage was determined after 24 hours from treatment (untreated leaf discs, mortality=0).

The test system of a further assay is Spodoptera littoralis. Put plainly: Biological activity on Spodoptera littoralis (Lepidoptera). As to conditions: 48 h. On the procedure:
(7) Biological activity on Spodoptera littoralis (Lepidoptera)
Cut tobacco leaves were sprinkled with an aqueous dispersion of the products under examination (see Tables 4 and 5).
After drying, the leaves were infested with 5-day old larvae.
The percentage of mortality of the larvae was determined after 48 hours from treatment (untreated leaves, mortality=0).

The subject of another assay is Blatta orientalis. The experiment in a line: Biological activity on Blatta orientalis (Ortoptera). Particulars: Blatta orientalis, 48 h, read-out: Activity (mortality class), Blatta O. On the procedure: (10) Biological activity on Blatta orientalis (Ortoptera)
The bottom and walls of glass crystallizers were treated uniformly with an acetonic solution of the products under examination (see Tables 4 and 5). After evaporation of the solvent, into each crystallizer were introduced ten 80-100 days old neanides. The crystallizers were then closed with a metal net cover. After 24 hours from the start of the treatment, the insects were transferred to similar untreated crystallizers, and there were appropriately nourished in conventional manner.
The percentage of mortality (untreated insects=0) was determined after 48 hours from the start of the treatment.

Where [2] appears, read: 1%o, Table 5, read-out: Activity (mortality class), Pieris B.
Setting [3] is: 1%o, Table 5, read-out: Activity (mortality class), Spodoptera L.
Where [4] appears, read: read-out: Activity (mortality class), Pieris B.
[5] abbreviates: 0.05%o, Table 5, read-out: Activity (mortality class), Spodoptera L.
[6] abbreviates: read-out: Activity (mortality class), Spodoptera L.
[7] abbreviates: 0.01%o, Table 5, read-out: Activity (mortality class), Pieris B.

Take `CCOP(=S)(OCC)Oc1nc(C=C(Br)Br)nn1C` [M 8308]: the mortality at 0.1 % (with Pieris brassicae (setting [2]); in assay [1]; in the assay with Tetranychus urticae; in the assay with Spodoptera littoralis (setting [3])) was 100% in each case. The mortality at 0.02 ppm in the assay with Culex pipiens came out at 100%. Moreover, the mortality at 2 ppm in the assay with Culex pipiens came to 100%. Moreover, the mortality at 1 g/m2 in the assay on Blatta orientalis (1 g/m^2, Table 5) amounted to 100%.

With `CCOP(=S)(OCC)Oc1nc(C=C(C)C)nn1C` [M 8483], the mortality at 0.001 % is 10 to 69% in the assay on Pieris brassicae (setting [4]) and 100% in the assay on Tetranychus urticae. Moreover, the mortality at 0.005 % was in the range of 70 to 99% in assay [1] and 10 to 69% with Spodoptera littoralis (setting [5]). In the assay with Culex pipiens, the mortality at 0.02 ppm lay in the range of 10 to 69%. The mortality at 0.01 g/m2 in the assay on Blatta orientalis stood at 100%.

In the case of `C=Cc1nc(OP(=S)(OCC)OCC)n(-c2ccccc2)n1` [M 8261], the mortality at 0.1 % (in the assay on Pieris brassicae (setting [2]); in assay [1]; in the assay with Tetranychus urticae; in the assay on Spodoptera littoralis (setting [3])) was 100% throughout. Moreover, the mortality at 2 ppm in the assay on Culex pipiens was 100%. For the same compound, the mortality at 1 g/m2 in the assay with Blatta orientalis (1 g/m^2, Table 5) turned out to be 100%.

Consider `CCOP(=S)(OCC)Oc1nc(C=C(Cl)SC)nn1C` [M 8805], for which, in the assay on Pieris brassicae (setting [4]), the mortality at 0.001 % is 10 to 69% and the mortality at 0.1 % is 100%. In assay [1], the mortality at 0.005 % was 100% and the mortality at 0.1 % turned out to be 100%. Besides, in the assay on Culex pipiens, the mortality at 0.02 ppm is 100% and the mortality at 2 ppm came to 100%. In addition, in the assay with Tetranychus urticae, the mortality at 0.001 % worked out at 100% and the mortality at 0.1 % stood at 100%. Besides, in the assay with Spodoptera littoralis (setting [6]), the mortality at 0.005 % came out at 100% and the mortality at 0.1 % turned out to be 100%. Also, in the assay on Blatta orientalis, the mortality at 0.01 g/m2 lay in the range of 10 to 69% and the mortality at 1 g/m2 is 100%.

Regarding `CCOP(=S)(OCC)Oc1nc(C=C(Cl)OC)nn1C` [M 8592], the mortality at 0.001 % with Pieris brassicae (setting [7]) and in the assay on Tetranychus urticae was 100% each time. Moreover, the mortality at 0.1 % (with Pieris brassicae (setting [2]); in assay [1]; in the assay with Tetranychus urticae; in the assay on Spodoptera littoralis (setting [3])) was 100% in each case. For the same compound, the mortality at 0.005 % (in assay [1]; with Spodoptera littoralis (setting [5])) was 100% in each case. Moreover, in the assay on Culex pipiens, the mortality at 0.02 ppm lay in the range of 10 to 69%. In the assay with Culex pipiens, the mortality at 2 ppm is 100%. Further, the mortality at 0.01 g/m2 with Blatta orientalis (0,01 g/m^2, Table 5) came out at 100%. Further, the mortality at 1 g/m2 with Blatta orientalis (1 g/m^2, Table 5) was determined as 100%.

As to `CCOP(=S)(OCC)Oc1nc(C=C(Cl)Cl)nn1CC(C)C` [M 8498], the results for the mortality at 0.001 % with Pieris brassicae (setting [7]) and in the assay with Tetranychus urticae were 100% and 10 to 69%, respectively. Moreover, the figures for the mortality at 0.005 % (in assay [1]; in the assay on Spodoptera littoralis (setting [5])) were 10 to 69% and 100%, respectively. For the same compound, in the assay on Culex pipiens, the mortality at 0.02 ppm is 70 to 99%. Further, in the assay with Blatta orientalis (0,01 g/m^2, Table 5), the mortality at 0.01 g/m2 fell in the range of 10 to 69%.

`CCCC=C(CC)c1nc(OP(=S)(OCC)OCC)n(C)n1` [M 8591]: the mortality at 0.1 % (with Pieris brassicae (setting [2]); in assay [1]; with Tetranychus urticae; with Spodoptera littoralis (setting [3])) was 100% throughout. The mortality at 2 ppm in the assay on Culex pipiens is 100%. Besides, in the assay on Tetranychus urticae, the mortality at 0.001 % was determined as 100%. The mortality at 1 g/m2 in the assay with Blatta orientalis (1 g/m^2, Table 5) is 100%.

With `CCOP(=S)(OCC)Oc1nc(C=Cc2ccccc2)nn1C` [M 8332], the mortality at 0.001 % with Pieris brassicae (setting [7]) fell in the range of 10 to 69%. Further, the mortality at 0.1 % with Pieris brassicae (setting [2]) is 100%; in assay [1], 70 to 99%; in the assay on Tetranychus urticae it was 100%; in the assay on Spodoptera littoralis (setting [3]) it was 100%. The mortality at 2 ppm with Culex pipiens was found to be 100%. For the same compound, the mortality at 0.01 g/m2 with Blatta orientalis (0,01 g/m^2, Table 5) stood at 100%. Also, in the assay with Blatta orientalis (1 g/m^2, Table 5), the mortality at 1 g/m2 came to 100%.

With `CCOP(=S)(OCC)Oc1nc(C(C)O)nn1-c1ccccc1` (stereo not shown) [M 7853], the mortality at 0.1 % (in the assay on Pieris brassicae (setting [2]); in assay [1]; in the assay on Tetranychus urticae; in the assay on Spodoptera littoralis (setting [3])) was 100% throughout. In the assay on Culex pipiens, the mortality at 2 ppm came out at 100%. The mortality at 1 g/m2 in the assay with Blatta orientalis (1 g/m^2, Table 5) was in the range of 10 to 69%.
